Legend:
MRC-5 cells [1] = experiment: ELISA of LPS-induced IL-6 and IL-8, MRC-5 cells; type: cell-based; conditions: 5 μg/ml LPS, peptide 10, 50, 100, 500 μM, 72 hours, culture supernatant (FIG. 5a, 5b)
Protocol: MRC-5 cells (lung fibroblast cells) were seeded at 2×10^5 cells/well in a 12-well plate and used in the experiment. After culturing for 1 day with a culture medium containing 10% FBS, the culture medium was replaced with a culture medium without containing FBS to induce starvation for 4 hours. Cells of a normal group without being treated with any substances, a group treated with 5 μg/ml of LPS (Sigma Aldrich) (negative control group), groups treated with 5 μg/ml of LPS and the peptide of Production Example 1 (10, 50, 100, 500 μM), and a group treated with 5 μg/ml of LPS and 10μM of Dexamethasone (DEX) (positive control group) were treated with active substances and drugs respectively and then cultured for 72 hours. After cell culture, the supernatant obtained by centrifuging the culture solution at 4° C. and 3,000 rpm for 10 minutes was subjected to ELISA analysis using an IL-6 Quantikine ELISA Kit (R&D systems) and an IL-8 Quantikine ELISA kit (R&D systems) according to the method of use in the kit instructions, and then the absorbance was measured at 450 nm using a microplate reader.

MRC-5 cells [2] = experiment: Inhibition of fibrosis gene expression induced by TGF-β1, RT-PCR, MRC-5 cells; type: cell-based; conditions: 5 ng/ml TGF-β1, peptide 10, 50, 100, 500 μM, 3 hours, RT-PCR (FIG. 7)
Protocol: MRC-5 cells (lung fibroblast cells) were seeded at 2×10^5 cells/well in a 12-well plate and used in the experiment. After culturing for 1 day with a culture medium containing 10% FBS, the culture medium was replaced with a culture medium without containing FBS to induce starvation for 4 hours. Cells of a normal group without being treated with any substances, a group treated with 5 ng/ml of TGF-β1 (negative control group), groups treated with 5 ng/ml of TGF-β1 and the peptide of Production Example 1 (10, 50, 100, 500 μM), and a group treated with 5 μg/ml of LPS and 10 μM of Dexamethasone (DEX) (positive control group) were treated with the above-described active substances and drugs, and then RNA was extracted after 3 hours to carry out RT-PCR. RNA was extracted from MRC-5 cells using an easy-BLUE™ Total RNA extraction kit (Qiagen, Germany). The extracted RNA was converted into cDNA using RT-PCR premix (iNtRON Biotechnology, Seongnam, Korea). After preparing a reaction mixture with PCR premix (iNtRON Biotechnology, Seongnam, Korea) and primers for each gene, PCR was carried out using a PCR machine (Eppendorf, Germany). Next, the mRNA expression pattern was determined by agarose gel electrophoresis.

BALB/c mice [3] = experiment: LPS-induced acute lung inflammation model, cell counts in bronchoalveolar lavage fluid; type: in vivo; conditions: BALB/c female mice, LPS 10 μg intranasal, peptide 0.5 mg, 1 mg intranasal 1 hour after LPS, 24 hours (FIG. 10a, 10b)
Protocol: BALB/c mice (Female/7W) were used in animal experiments, and an acute lung inflammation model was established by injection of LPS. As shown in [Table 5] below, 7-week-old BALB/c female mice were divided into 5 groups of 5 mice each, and then the experiment was carried out. On the 1st day, LPS (10 μg/50 μl/mouse) was administered intranasally to the G2 to G5 groups. 1 hour after LPS administration, the G3 and G4 groups were subjected to intranasal administration with the peptide of Production Example 1 (0.5 mg, 1 mg), and the G5 positive control group was subjected to intraperitoneal administration with Dexamethasone (100 μg). 24 hours after the administration of the active substance and the drug, the mice were sacrificed to obtain the bronchoalveolar lavage fluid and the lung tissue, which were used in the next analysis.
After anesthetizing the mouse, the treatment area was disinfected with 70% ethanol. […] The separated cells were resuspended in 0.5 ml of PBS, subsequently diluted with trypan blue solution at a 1:1 ratio, and then the total number of cells was counted using a hematocytometer. […] After staining, cells were observed and counted through a microscope, and then the number of immune cells with respect to the total number of cells was calculated to show the results as a graph.

BALB/c mice [4] = experiment: BLM-induced pulmonary fibrosis model, Masson's Trichrome staining of lung tissue collagen; type: in vivo; conditions: BALB/c male mice, peptide 1 mg/mouse intranasal three times a week for 14 days, 21st day, Trichrome staining (FIG. 15a, 15b)
Protocol: As shown in [Table 6] below, 8-week-old BALB/c male mice were divided into 4 groups of 5 mice each. On the 1st day, a Bleomycin solution ([…]/50 μl/mouse) was administered through the oropharynx to carry out one time of induction with BLM. Then, from the 7th day, the peptide of Production Example 1 (1 mg/mouse) was administered intranasally three times a week for 14 days, and Pirfeninone (2 mg/mouse) for a positive control group was administered orally three times a week for 14 days. On the 21st day of the induction with BLM, mice were sacrificed to obtain the bronchoalveolar lavage fluid and the lung tissue, which were used in the next analysis.
The lung tissue obtained from mice subjected to the animal experiment was washed with PBS at room temperature and then fixed with 4% paraformaldehyde (PBS dilution). The fixed tissue was washed three times with PBS and dehydrated using an ethanol series having a concentration gradient of 70% to 100%. Next, the lung tissue sample was embedded and cut into slices having a thickness of 4 μm. The sliced specimen having a size of 4 μm, which was placed on a slide glass, was dewaxed and hydrated in an ethanol series having a concentration gradient. Staining was carried out for 10 minutes in each of Weigert's iron hematoxlin, a Biebrich scarlet-acid fuchsin solution, a Phosphomolybdic-phosphotungstic acid solution, and an aniline blue solution. […]

KYLLVHRPYYRR [peptide of Production Example 1]
expression level of IL-6 (ELISA) (MRC-5 cells [1]): decreased the expression levels of IL-6 and IL-8 in a concentration-dependent manner | expression level of IL-8 (ELISA) (MRC-5 cells [1]): decreased the expression levels of IL-6 and IL-8 in a concentration-dependent manner | expression of Collagen 1A1 gene (MRC-5 cells [2]): decreased the expression of genes in a concentration-dependent manner | expression of Fibronectin 1 gene (MRC-5 cells [2]): decreased the expression of genes in a concentration-dependent manner | expression of Tenascin C gene (MRC-5 cells [2]): decreased the expression of genes in a concentration-dependent manner | expression of α-SMA gene (MRC-5 cells [2]): decreased the expression of genes in a concentration-dependent manner | number of macrophages in bronchoalveolar lavage fluid (BALB/c mice [3]): not increased or decreased | number of neutrophils in bronchoalveolar lavage fluid (BALB/c mice [3]): significantly reduced the increased number of neutrophils in a concentration-dependent manner | degree of collagen deposition in the lung tissue (BALB/c mice [4]): significantly reduced
